tested on: MDA-MB-231 clone 16, MDA-MB-231 clone 40, JimT-1 and HCC1954 cells; test: Cell proliferation assays of anti-Her2 ADCs, results in words over the cell line panel; type: cell-based, human; details: Her2 high, medium and low cell lines
Source text: Cells that naturally express target antigens or cell lines engineered to express target antigens are frequently used to assay the activity and potency of ADCs. For evaluation of the cell killing potency of anti-Her2 antibody ADCs in vitro, two engineered cell lines, MDA-MB-231 clone 16 and clone 40, and two endogenous cell lines, JimT-1 and HCC1954 cells were employed (Clinchy B, Gazdar A, Rabinovsky R, Yefenof E, Gordon B, Vitetta E S. Breast Cancer Res Treat. (2000) 61:217-228). MDA-MB-231 clone 16 cells stably express high copy numbers (˜5×10^5copies/cell) of recombinant human Her2 on the cell surface, while clone 40 expresses human Her2 at low levels (˜5×10^3 copies/cell). HCC1954 cells endogenously express high levels (˜5×10^5 copies/cell) of […] human Her2 in the surface while JimT-1 cells express human Her2 at a medium level (˜8×10^4 copies/cell). NCI-N87 cells express high levels of Her2 while A375 cell express low levels of Her2. An ADC should kill cells in an antigen-dependent manner, meaning that only cells that express sufficient antigen in the cell surface but not cells lacking the antigen will be killed. Therefore cell killing should not be observed MDA-MB-231 clone 40 cells.
(§1) To measure antigen-dependent cell killing, cell proliferation assays were conducted with Cell-Titer-Glo™ (Promega) five days after different cell types were incubated with various concentrations of ADCs (Riss et al., (2004) Assay Drug Dev Technol. 2:51-62).
Anti-Her2 ADCs prepared with compounds of the invention and conjugated site-specifically to anti-Her2 Cys mutant antibodies (see Table 5) were assayed in the aforementioned four cell lines to evaluate their cytotoxicity. […] In JimT-1 cells, a cell line with a medium level of Her2 expression, the cell killing activities by the ADCs varied widely. […] Many ADCs killed JimT-1 cell as effectively as HCC1954 and MDAMB231-16 cells (FIG. 1, Table 15). […] The significant differences of cytotoxic potency observed in JimT-1 cell amoung anti-Her2-LC-S159C ADCs have made it possible to rank the potency of the payloads. […] This is in contrast to the in vitro cell killing of both high and low Her2 expressing cell lines by free, unconjugated compounds of the invention (see Example 106,Table 14).

SMILES	Cell killing activity of anti-Her2 ADCs
CC[C@H](C)[C@@H]([C@@H](CC(=O)N1CCC[C@H]1[C@H](OC)[C@@H](C)C(=O)N[C@@H](Cc1ccccc1)P(=O)(O)O)OC)N(C)C(=O)[C@@H](N=C(N(C)C)N1CCN(C(=O)CCCCCN2C(=O)C=CC2=O)CC1)C(C)C (stereo in doubt) [NL-19, ((R)-1-((2R,3R)-3-((S)-1-((3R,4S,5S)-4-((S)-2-((E)-((dimethylamino)(4-(6-(2,5-dioxo-2,5-dihydro-1H-pyrrol-1-yl)hexanoyl)piperazin-1-yl)methylene)amino)-N,3-dimethylbutanamido)-3-methoxy-5-methylheptanoyl)pyrrolidin-2-yl)-3-methoxy-2-methylpropanamido)-2-phenylethyl)phosphonic acid]	active in HCC1954 and MDAMB231-16 cells but not in JimT-1 cells
CC[C@H](C)[C@@H]([C@@H](CC(=O)N1CCC[C@H]1[C@H](OC)[C@@H](C)C(=O)N[C@@H](Cc1ccccc1)C(=O)Nc1ccc(CNC(=O)CCCCCN2C(=O)C=CC2=O)cc1)OC)N(C)C(=O)[C@@H](/N=C(\N(C)C)N1CCNCC1)C(C)C [CL-5, N-(4-((S)-2-((2R,3R)-3-((S)-1-((3R,4S,5S)-4-((S)-2-((E)-((dimethylamino)(piperazin-1-yl)methylene)amino)-N,3-dimethylbutanamido)-3-methoxy-5-methylheptanoyl)pyrrolidin-2-yl)-3-methoxy-2-methylpropanamido)-3-phenylpropanamido)benzyl)-6-(2,5-dioxo-2,5-dihydro-1H-pyrrol-1-yl)hexanamide]	active in HCC1954 and MDAMB231-16 cells but not in JimT-1 cells
CC[C@H](C)[C@@H]([C@@H](CC(=O)N1CCC[C@H]1[C@H](OC)[C@@H](C)C(=O)N[C@@H](Cc1ccccc1)C(=O)NS(=O)(=O)CCCn1cc(CN2C(=O)C=CC2=O)nn1)OC)N(C)C(=O)[C@@H](Nc1nccc(C)n1)C(C)C [CL-24, (S)-2-((4-methylpyrimidin-2-yl)amino)-1-(((3R,4S,5S)-1-((S)-2-((1R,2R)-3-(((S)-N-1-(3-(4-((2,5-dioxo-2,5-dihydro-1H-pyrrol-1-yl)methyl)-1H-1,2,3-triazol-1-yl)propylsulfonamido)-1-oxo-3-phenylpropan-2-yl)amino)-1-methoxy-2-methyl-3-oxopropyl)pyrrolidin-1-yl)-3-methoxy-5-methyl-1-oxoheptan-4-yl)(methyl)amino)-3-methyl-1-oxobutane]	active in HCC1954 and MDAMB231-16 cells but not in JimT-1 cells
CC[C@H](C)[C@@H]([C@@H](CC(=O)N1CCC[C@H]1[C@H](OC)[C@@H](C)C(=O)N[C@@H](Cc1ccccc1)P(=O)(O)O)OC)N(C)C(=O)[C@@H](/N=C(\N(C)C)N1CCN(C(=O)CCCn2cc(CN3C(=O)C=CC3=O)nn2)CC1)C(C)C [NL-21, ((R)-1-((2R,3R)-3-((S)-1-((3R,4S,5S)-4-((S)-2-((E)-((dimethylamino)(4-(4-(4-((2,5-dioxo-2,5-dihydro-1H-pyrrol-1-yl)methyl)-1H-1,2,3-triazol-1-yl)butanoyl)piperazin-1-yl)methylene)amino)-N,3-dimethylbutanamido)-3-methoxy-5-methylheptanoyl)pyrrolidin-2-yl)-3-methoxy-2-methylpropanamido)-2-phenylethyl)phosphonic acid]	active in HCC1954 and MDAMB231-16 cells but not in JimT-1 cells
CC[C@H](C)[C@@H]([C@@H](CC(=O)N1CCC[C@H]1[C@H](OC)[C@@H](C)C(=O)N[C@@H](Cc1ccccc1)C(=O)O)OC)N(C)C(=O)[C@@H](NC(=O)N(CCCNC(=O)CCCCCN1C(=O)C=CC1=O)C(C)C)C(C)C [NL-30, (S)-2-((2R,3R)-3-((S)-1-((3R,4S,7S)-4-((S)-sec-butyl)-20-(2,5-dioxo-2,5-dihydro-1H-pyrrol-1-yl)-7,10-diisopropyl-3-methoxy-5-methyl-6,9,15-trioxo-5,8,10,14-tetraazaicosan-1-oyl)pyrrolidin-2-yl)-3-methoxy-2-methylpropanamido)-3-phenylpropanoic acid]	active in HCC1954 and MDAMB231-16 cells but not in JimT-1 cells
CC[C@H](C)[C@@H]([C@@H](CC(=O)N1CCC[C@H]1[C@H](OC)[C@@H](C)C(=O)N[C@@H](Cc1ccccc1)C(=O)O)OC)N(C)C(=O)[C@@H](Nc1nc(C)cc(C(=O)NCCNC(=O)CCCCCN2C(=O)C=CC2=O)n1)C(C)C [NL-38, (S)-2-((2R,3R)-3-((S)-1-((3R,4S,5S)-4-((S)-2-((4-((2-(6-(2,5-dioxo-2,5-dihydro-1H-pyrrol-1-yl)hexanamido)ethyl)carbamoyl)-6-methylpyrimidin-2-yl)amino)-N,3-dimethylbutanamido)-3-methoxy-5-methylheptanoyl)pyrrolidin-2-yl)-3-methoxy-2-methylpropanamido)-3-phenylpropanoic acid]	active in HCC1954 and MDAMB231-16 cells but not in JimT-1 cells

tested on: H526, KU812, CMK11-5 and Jurkat cells; test: Cell proliferation assays of antibody 20507 ADCs, results in words over the cell line panel; type: cell-based, human; details: antigen expressing cells versus Jurkat
Protocol: as §1

SMILES	Cell killing activity of antibody 20507 ADCs
CC[C@H](C)[C@@H]([C@@H](CC(=O)N1CCC[C@H]1[C@H](OC)[C@@H](C)C(=O)N[C@H](Cc1ccccc1)C(=O)Nc1ccc(CNC(=O)CCCCCN2C(=O)C=CC2=O)cc1)OC)N(C)C(=O)[C@@H](N=C(N(C)C)N(C)C)C(C)C [CL-1, N-(4-((R)-2-((2R,3R)-3-((S)-1-((3R,4S,5S)-4-((S)-2-((bis(dimethylamino)methylene)amino)-N,3-dimethylbutanamido)-3-methoxy-5-methylheptanoyl)pyrrolidin-2-yl)-3-methoxy-2-methylpropanamido)-3-phenylpropanamido)benzyl)-6-(2,5-dioxo-2,5-dihydro-1H-pyrrol-1-yl)hexanamide]	active when conjugated to antibody 20507
CC[C@H](C)C([C@@H](CC(=O)N1CCC[C@H]1[C@H](OC)[C@@H](C)C(=O)N[C@@H](Cc1ccccc1)C(=O)NS(=O)(=O)CCCn1cc(CN2C(=O)C=CC2=O)nn1)OC)N(C)C(=O)[C@@H](N=C(N(C)C)N(C)C)C(C)C (stereo partly drawn) [CL-9, (S)-2-((Bis(dimethylamino)methylene)amino)-1-(((3R,4S,5S)-1-((S)-2-((1R,2R)-3-(((S)-N-1-(3-(4-((2,5-dioxo-2,5-dihydro-1H-pyrrol-1-yl)methyl)-1H-1,2,3-triazol-1-yl)propylsulfonamido)-1-oxo-3-phenylpropan-2-yl)amino)-1-methoxy-2-methyl-3-oxopropyl)pyrrolidin-1-yl)-3-methoxy-5-methyl-1-oxoheptan-4-yl)(methyl)amino)-3-methyl-1-oxobutane]	active when conjugated to antibody 20507
CC[C@H](C)[C@@H]([C@@H](CC(=O)N1CCC[C@H]1[C@H](OC)[C@@H](C)C(=O)N[C@@H](Cc1ccccc1)C(=O)O)OC)N(C)C(=O)[C@@H](/N=C(\N(C)C)N1CCN(C(=O)CCCCCN2C(=O)C=CC2=O)CC1)C(C)C [NL-4, (S)-2-((2R,3R)-3-((S)-1-((3R,4S,5S)-4-((S)-2-((E)-((dimethylamino)(4-(6-(2,5-dioxo-2,5-dihydro-1H-pyrrol-1-yl)hexanoyl)piperazin-1-yl)methylene)amino)-N,3-dimethylbutanamido)-3-methoxy-5-methylheptanoyl)pyrrolidin-2-yl)-3-methoxy-2-methylpropanamido)-3-phenylpropanoic acid]	active when conjugated to antibody 20507
